{"source": "paper PMC9981206", "about": "(Cancer Research Communications, 2022)", "key": {"[1]": {"tested_on": "WNT/β-catenin signaling", "experiment": "Immunoblot and real-time qRT-PCR, WNT/β-catenin signaling in cancer cell lines", "type": "cell-based, human", "conditions": "10 nmol/L, 24 hours", "from_the_text": "(§1) The cell cultures were kept below 20 passages (∼10 weeks) and routinely monitored (upon thawing and monthly) for Mycoplasma infections with MycoAlert Mycoplasma Detection Kit (Lonza). All cell lines were authenticated by short tandem repeat profiling to confirm their identity (Eurofins). TNKS1/2 and PARP1 biochemical assays ([27, 32]), luciferase-based WNT/β-catenin signaling pathway reporter assay ([22, 27, 32]), anti-proliferative assays, and NCI-60 tumor cell line panel screen ([7]), immunoblot analyses ([7, 32, 39]), RNA isolation, and real-time qRT-PCR ([7, 27, 39, 40]) were performed as previously described.\nProstate (Pro) and central nervous system (CNS). […] Mean ± SD values for data from one representative experiment of more than three repeated assays, each with six replicates, are shown. C, Evaluation of WNT/β-catenin signaling. Left, immunoblots of cytoplasmic AXIN1 and nuclear active form of β-catenin [non-phospho (Ser33/37/Thr41)] and total β-catenin. Lamin B1 loading controls are duplicated for OVCAR-4 immunoblots. Right, real-time RT-qPCR analysis of the WNT/β-catenin signaling target gene AXIN2. […] Immunoblots show representative data from two or more independent experiments. Actin (cytoplasm) and lamin B1 (nucleus) were used as loading controls. Boxplots show median, first, and third quartiles and maximum and minimum whiskers for combined data from three independent experiments with three replicates each. Stippled lines (black) depict control mean values = 1. Two-tailed t tests: ***, P < 0.001; **, P < 0.01; and *, P < 0.05. Mann–Whitney rank sum tests: ‡, P < 0.01. ns., not significant. D, Evaluation of YAP signaling. Left, immunoblots of cytoplasmic AMOTL2 (top) and nuclear YAP and TAZ (bottom). Right, real-time RT-qPCR analysis of the YAP signaling target genes AMOTL2, CCN1, and […]. For D and E, lamin B1 loading controls are duplicated for RKO immunoblots (YAP/TAZ and CCND1). E, Evaluation of MYC signaling. Left, immunoblots of nuclear MYC and CCND1. Lamin B1 loading controls are duplicated for ABC-1 immunoblots. […]"}, "[2]": {"tested_on": "RKO colon carcinoma cells", "conditions": "5 days of cultivation; cited from earlier work"}, "[3]": {"tested_on": "WNT/β-catenin signaling", "conditions": "HEK293 cells, mean ± SD; read-out: WNT reporter IC50; cited from earlier work"}, "[4]": {"tested_on": "ABC-1 cells", "experiment": "MTS colorimetric cell growth assay, ABC-1", "type": "cell-based", "conditions": "Homo sapiens, ABC-1, 120 h", "from_the_text": "as §1\n(§2) Prostate (Pro) and central nervous system (CNS). […] Mean ± SD values for data from one representative experiment of more than three repeated assays, each with six replicates, are shown. C, Evaluation of WNT/β-catenin signaling. Left, immunoblots of cytoplasmic AXIN1 and nuclear active form of β-catenin [non-phospho (Ser33/37/Thr41)] and total β-catenin. Lamin B1 loading controls are duplicated for OVCAR-4 immunoblots. Right, real-time RT-qPCR analysis of the WNT/β-catenin signaling target gene AXIN2. […] Immunoblots show representative data from two or more independent experiments. Actin (cytoplasm) and lamin B1 (nucleus) were used as loading controls. […]"}, "[5]": {"tested_on": "B16-F10 tumors", "experiment": "B16-F10 mouse melanoma model", "procedure": "The experiment using B16-F10 tumors was carried out as previously described ([39]) at Reaction Biology. […] Next, the mice were sacrificed, approximately 8 hours after last dosing. Protein and RNA extracts were prepared from 8 tumors within each treatment group."}, "[6]": {"molecular_target": "PARP1 (Homo sapiens, UniProt P09874)", "sequence (P09874 whole entry)": "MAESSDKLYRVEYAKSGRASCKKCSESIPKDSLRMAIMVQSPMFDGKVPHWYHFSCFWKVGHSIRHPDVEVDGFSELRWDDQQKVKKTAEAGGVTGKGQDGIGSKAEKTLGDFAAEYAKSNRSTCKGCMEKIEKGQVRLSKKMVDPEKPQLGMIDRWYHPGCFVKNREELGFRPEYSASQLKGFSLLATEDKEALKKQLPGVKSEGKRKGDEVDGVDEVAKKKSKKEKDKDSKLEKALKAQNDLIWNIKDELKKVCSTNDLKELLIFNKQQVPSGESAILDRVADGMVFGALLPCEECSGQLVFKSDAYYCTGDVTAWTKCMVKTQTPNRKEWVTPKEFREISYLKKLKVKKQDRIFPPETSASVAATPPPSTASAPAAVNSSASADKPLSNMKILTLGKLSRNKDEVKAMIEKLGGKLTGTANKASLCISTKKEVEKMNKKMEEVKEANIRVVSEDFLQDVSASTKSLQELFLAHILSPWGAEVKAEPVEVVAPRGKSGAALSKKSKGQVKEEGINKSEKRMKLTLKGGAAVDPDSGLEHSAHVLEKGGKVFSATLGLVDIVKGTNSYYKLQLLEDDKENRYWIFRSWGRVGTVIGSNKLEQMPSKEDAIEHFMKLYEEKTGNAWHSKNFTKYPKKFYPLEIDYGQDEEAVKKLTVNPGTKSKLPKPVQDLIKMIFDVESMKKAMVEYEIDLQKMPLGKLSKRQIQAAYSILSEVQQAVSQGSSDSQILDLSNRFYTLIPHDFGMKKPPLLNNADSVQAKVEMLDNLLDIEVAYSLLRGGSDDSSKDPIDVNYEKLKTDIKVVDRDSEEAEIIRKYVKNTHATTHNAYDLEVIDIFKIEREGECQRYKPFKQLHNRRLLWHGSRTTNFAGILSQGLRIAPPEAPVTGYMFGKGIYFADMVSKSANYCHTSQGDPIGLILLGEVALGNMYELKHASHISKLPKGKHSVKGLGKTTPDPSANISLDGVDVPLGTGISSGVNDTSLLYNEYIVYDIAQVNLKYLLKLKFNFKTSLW", "conditions": "biochemical assay; cited from earlier work"}, "[7]": {"tested_on": "COLO 320DM xenografts", "experiment": "in vivo", "type": "in vivo, CB17-SCID mice", "conditions": "for body weight changes: tumor-bearing CB17-SCID mice", "procedure": "(§3) The experiment using COLO 320DM (CCL-220, RRID: CVCL_0219, ATCC) xenografts was carried out as previously described ([40]) at Reaction Biology. […] Next, the mice were sacrificed, approximately 4 hours after first dose of the day. Protein and RNA extracts were prepared from four moderately sized tumors within each treatment group."}, "[8]": {"experiment": "in vivo", "type": "in vivo, CB17-SCID mice", "conditions": "CB17-SCID, mouse, doses 0.33–10 mg/kg oral twice daily, 4 hours post last dosing, mass spectrometry", "procedure": "as §3"}, "[9]": {"tested_on": "UO-31 cells", "experiment": "MTS colorimetric cell growth assay, UO-31", "type": "cell-based, human", "from_the_text": "as §1, §2"}, "[10]": {"experiment": "Dose escalation experiment (acute toxicity, MTD)", "conditions": "500, 1,000, 1,500, or 2,000 mg/kg oral twice daily, single male CD-1 mice", "quoted_text": "The dose escalation experiment was performed in single male CD-1 mice (CRL: 022, RRID: IMSR_CRL: 022, Charles River) at BSL BIOSERVICE/Eurofins using their standard protocol. […] Body weight was recorded daily."}, "[11]": {"tested_on": "COLO 320DM colon carcinoma cells", "conditions": "cited from earlier work"}, "[12]": {"tested_on": "YAP signaling", "experiment": "Immunoblot and real-time qRT-PCR, YAP signaling in cancer cell lines", "type": "cell-based, human", "conditions": "10 nmol/L, 24 hours", "from_the_text": "as §1, §2"}, "[13]": {"tested_on": "OVCAR-4 cells", "experiment": "MTS colorimetric cell growth assay, OVCAR-4", "type": "cell-based, human", "from_the_text": "as §1, §2"}, "[14]": {"experiment": "Mouse pharmacokinetic analysis", "type": "in vivo", "conditions": "CD-1 mice; for MRT last: read-out: MRT(0-24); for CL/F: read-out: Cl or Cl/F (converted); for bioavailability: read-out: F (fraction absorbed/bioavailability)", "procedure": "The pharmacokinetic analyses were performed according to the standard protocols of Medicilon as previously described ([22, 27, 32]). […] The same vehicle and oral–twice daily treatment regime were used for all other experiments. Samples were collected after 15 and 30 minutes plus 1, 2, 4, and 6 hours for group 1, and after 6.5, 8, 10, and 24 hours for group 2."}, "[15]": {"tested_on": "MYC signaling", "experiment": "Immunoblot and real-time qRT-PCR, MYC signaling in cancer cell lines", "type": "cell-based, human", "conditions": "10 nmol/L, 24 hours, all TNKSi-sensitive cell lines", "from_the_text": "as §1, §2"}, "[16]": {"conditions": "10 mg/kg oral twice daily, immunoblot"}, "[17]": {"conditions": "mouse, plasma, 0.4 mg/kg IV BID"}, "[18]": {"conditions": "mouse, plasma, 100 mg/kg PO BID"}}, "note": "“And” between values parts separate entries of the source, which are not always exact repeats. Equal values may be shown once. Read-outs that look alike come from different tables or passages of the source.", "data": [{"smiles": "CCOc1ccc(-c2nnc([C@H]3C[C@H](NC(=O)c4cccc5nccnc45)C3)n2-c2ccccc2F)nc1", "note": "[OM-153]", "values": [{"measurement": "transcription of AXIN2", "setting": "[1]; COLO 320DM, OVCAR-4 and ABC-1 cells", "result": "significantly reduced"}, {"measurement": "AXIN1 protein", "setting": "[1]; all cell lines (COLO 320DM, UO-31, OVCAR-4, ABC-1, RKO)", "result": "stabilized"}, {"measurement": "transcriptionally active form of β-catenin in the nuclei", "setting": "[1]; only in COLO 320DM and ABC-1 cells", "result": "reduction"}, {"measurement": "GI50", "setting": "[2]", "result": "> 10000", "unit": "nM"}, {"measurement": "RKO GI25", "setting": "[2]", "result": "> 10,000 nmol/L"}, {"measurement": "IC50", "setting": "[3]", "result": 0.63, "unit": "nM"}, {"measurement": "GI50", "setting": "[4]", "result": 2, "unit": "nM"}, {"measurement": "AXIN1 protein in tumors", "setting": "[5]; [16]", "result": "significant stabilization"}, {"measurement": "β-catenin in tumors", "setting": "[5]; [16]", "result": "insignificant downregulation"}, {"measurement": "transcription of the target gene Axin2 in tumors", "setting": "[5]; 10 mg/kg oral twice daily, real-time qRT-PCR", "result": "significantly decreased"}, {"measurement": "tumor end volume inhibition compared with the vehicle control", "setting": "[5]; 0.1–10 mg/kg OM-153 oral twice daily in combination with anti–PD-1 (10 mg/kg i.p. day 6, 9, 12)", "result": "51%–65%"}, {"measurement": "body weights", "setting": "[5]; any of the treatment groups, day 6 through 20", "result": "No alterations in body weights"}, {"measurement": "antitumor effect, monotherapy controls", "setting": "[5]; monotherapy, 10 mg/kg", "result": "did not exert any significant antitumor effects"}, {"measurement": "IC50", "setting": "[6]", "result": "> 100000", "unit": "nM"}, {"measurement": "body weight changes", "setting": "[7]; 10 mg/kg oral twice daily", "result": "no changes in body weights that would be suggestive for toxicity"}, {"measurement": "body weight changes", "setting": "[7]; 3.3 and 1 mg/kg oral twice daily", "result": "statistically significant body weight reductions"}, {"measurement": "β-catenin protein and WNT/β-catenin signaling target genes DKK1, APCDD1, NKD1 in tumors", "setting": "[7]; immunoblot and real-time qRT-PCR, oral twice daily", "result": "dose-dependently reduced"}, {"measurement": "AXIN1 and AXIN2 proteins in the tumor specimen", "setting": "[7]; immunoblot, oral twice daily", "result": "stabilized"}, {"measurement": "concentration at 4 h", "setting": "[8]; plasma", "result": "> 10", "unit": "nM"}, {"measurement": "concentration at 4 h", "setting": "[8]; tumor", "result": "> 10", "unit": "nM"}, {"measurement": "GI50", "setting": "[9]; Homo sapiens, UO-31, 120 h", "result": "> 10", "unit": "nM"}, {"measurement": "GI25", "setting": "[9]; UO-31, 5 days", "result": 3.5, "unit": "nM"}, {"measurement": "clinical signs of systemic toxicity", "setting": "[10]", "result": "No clinical signs of systemic toxicity"}, {"measurement": "COLO320DM GI25", "setting": "[11]; 5 days of cultivation", "result": 2.5, "unit": "nM"}, {"measurement": "GI50", "setting": "[11]; 5 days of cultivation, read-out: COLO320DM GI50", "result": 10, "unit": "nM"}, {"measurement": "COLO 320DM in vitro GI50 value", "setting": "[11]; same value as 10 nmol/L", "result": 5.1, "unit": "ng/mL"}, {"measurement": "transcription of YAP signaling target genes AMOTL2, CCN1 and CCN2", "setting": "[12]; all TNKSi-sensitive cell lines", "result": "reduced transcription"}, {"measurement": "AMOTL2 protein", "setting": "[12]; all cell lines", "result": "cytoplasmic stabilization"}, {"measurement": "GI50", "setting": "[13]; Homo sapiens, OVCAR-4, 120 h", "result": "> 10", "unit": "nM"}, {"measurement": "GI25", "setting": "[13]; OVCAR-4, 5 days", "result": 2.5, "unit": "nM"}, {"measurement": "Cmax2", "setting": "[14]; 10 mg/kg PO BID", "result": "2,700 ng/mL"}, {"measurement": "Cmax2 (plasma concentration after the second dose)", "setting": "[14]; 10 mg/kg oral twice daily", "result": 5300, "unit": "nM"}, {"measurement": "plasma concentration after 24 hours", "setting": "[14]; 10 mg/kg oral twice daily", "result": "below the detection threshold"}, {"measurement": "Cmax2", "setting": "[14]; 100 mg/kg PO BID", "result": "20,000 ng/mL"}, {"measurement": "Cmax2 (plasma concentration after the second dose)", "setting": "[14]; 100 mg/kg oral twice daily", "result": 39200, "unit": "nM"}, {"measurement": "half-life", "setting": "[14]; [17]", "result": 0.59, "unit": "h"}, {"measurement": "MRT last", "setting": "[14]; [17]", "result": 3.6, "unit": "h"}, {"measurement": "half-life", "setting": "[14]; mouse, plasma, 2 mg/kg IV BID", "result": 0.56, "unit": "h"}, {"measurement": "MRT last", "setting": "[14]; mouse, plasma, 2 mg/kg IV BID", "result": 3.5, "unit": "h"}, {"measurement": "half-life", "setting": "[14]; mouse, plasma, 10 mg/kg PO BID", "result": 2.7, "unit": "h"}, {"measurement": "CL/F", "setting": "[14]; mouse, plasma, 10 mg/kg PO BID", "result": 16.7, "unit": "mL/min/kg"}, {"measurement": "bioavailability", "setting": "[14]; mouse, plasma, 10 mg/kg PO BID", "result": 100, "unit": "%"}, {"measurement": "MRT last", "setting": "[14]; mouse, plasma, 10 mg/kg PO BID", "result": 5.8, "unit": "h"}, {"measurement": "half-life", "setting": "[14]; [18]", "result": 5.9, "unit": "h"}, {"measurement": "CL/F", "setting": "[14]; [18]", "result": 18.3, "unit": "mL/min/kg"}, {"measurement": "bioavailability", "setting": "[14]; [18]", "result": 130, "unit": "%"}, {"measurement": "MRT last", "setting": "[14]; [18]", "result": 8.4, "unit": "h"}, {"measurement": "concentration at 24 h", "setting": "[14]; mouse, plasma, 100 mg/kg oral twice daily, read-out: plasma concentration after 24 hours", "result": "1900 ng/mL and 3.7 µM"}, {"measurement": "MYC and CCND1 protein and transcription of MYC and CCND1", "setting": "[15]", "result": "decreased"}]}]}
